Experiments:
[1] = target: T1, human α2A-adrenergic receptor (hα2A; αh2A) (Homo sapiens, UniProt P08913); test: radioligand binding, filtration, Sf9 membranes; conditions: labelled compound, […]; […] Tris-HCl pH […] MgCl2, […] EDTA; […] h
T1 sequence (P08913 1-465): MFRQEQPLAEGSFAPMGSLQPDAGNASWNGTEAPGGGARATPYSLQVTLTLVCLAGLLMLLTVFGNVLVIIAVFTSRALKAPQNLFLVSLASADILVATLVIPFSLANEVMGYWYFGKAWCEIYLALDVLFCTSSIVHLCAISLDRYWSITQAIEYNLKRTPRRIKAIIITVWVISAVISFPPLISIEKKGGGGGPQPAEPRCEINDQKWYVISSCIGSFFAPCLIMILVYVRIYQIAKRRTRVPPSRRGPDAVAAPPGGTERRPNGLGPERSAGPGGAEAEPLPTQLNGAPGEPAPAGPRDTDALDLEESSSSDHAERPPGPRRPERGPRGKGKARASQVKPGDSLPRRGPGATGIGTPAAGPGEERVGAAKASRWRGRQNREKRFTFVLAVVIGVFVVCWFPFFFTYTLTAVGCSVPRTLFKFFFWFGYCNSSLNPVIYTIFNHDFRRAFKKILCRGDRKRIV

[2] = target: T1, human α2A-adrenergic receptor (hα2A; αh2A); test: [3H]RX821002 displacement, filtration, Sf9 membranes; type: binding; conditions: […] [3H]RX821002; […] Tris-HCl pH […] MgCl2, […] EDTA

SMILES: COC1(C2=NCCN2)COc2ccccc2O1 (stereo not shown) [RX821002]
- radioligand binding, filtration, Sf9 membranes [1]: [^3H]RX821002 binding was concentration-dependently inhibited by increasing concentrations of both norepinephrine and dopamine

SMILES: CN1CCN(C2=Nc3cc(Cl)ccc3Nc3ccccc32)CC1 [clozapine]
- [3H]RX821002 displacement, filtration, Sf9 membranes [2]: apomorphine, SCH-23390 and clozapine display a substantial affinity for α2a-adrenergic receptors

SMILES: CN1CCc2cccc3c2[C@H]1Cc1ccc(O)c(O)c1-3 [apomorphine]
- [3H]RX821002 displacement, filtration, Sf9 membranes [2]: apomorphine, SCH-23390 and clozapine display a substantial affinity for α2a-adrenergic receptors

SMILES: CN1CCc2cc(Cl)c(O)cc2[C@@H](c2ccccc2)C1 [SCH-23390]
- [3H]RX821002 displacement, filtration, Sf9 membranes [2]: apomorphine, SCH-23390 and clozapine display a substantial affinity for α2a-adrenergic receptors
